The melting point is the temperature of the solid-liquid transition.

SMILES strings stand for the structures.

As for `COc1cccc([C@H]2O[C@H](CC(=O)Nc3cccc(OC(F)(F)C(=O)O)c3)C(=O)N(CC(C)(C)CO)c3ccc(Cl)cc32)c1OC` [Example 133, 2-[3-[[[(3R,5S)-7-Chloro-5-(2,3-dimethoxyphenyl)-1-(3-hydroxy-2,2-dimethylpropyl)-2-oxo-1,2,3,5-tetrahydro-4,1-benzoxazepin-3-yl]acetyl]amino]phenyloxy]-2,2-difluoroacetic acid], the melting point lay in the range of 119 to 121 °C.

The molecule `COc1cccc([C@H]2O[C@H](CC(=O)Nc3ccc(F)c(CCC(=O)O)c3)C(=O)N(CC(C)(C)CO)c3ccc(Cl)cc32)c1OC` [Example 134, 3-[5-[[[(3R,5S)-7-Chloro-5-(2,3-dimethoxyphenyl)-1-(3-hydroxy-2,2-dimethylpropyl)-2-oxo-1,2,3,5-tetrahydro-4,1-benzoxazepin-3-yl]acetyl]amino]-2-fluorophenyl]propionic Acid] came in with a melting point of 123 to 125 °C.

Regarding `COc1cccc([C@H]2O[C@H](CC(=O)Nc3cccc(CCCCC(=O)O)c3)C(=O)N(CC(C)(C)CO)c3ccc(Cl)cc32)c1OC` [Example 135, 5-[3-[[[(3R,5S)-7-Chloro-5-(2,3-dimethoxyphenyl)-1-(3-hydroxy-2,2-dimethylpropyl)-2-oxo-1,2,3,5-tetrahydro-4,1-benzoxazepin-3-yl]acetyl]amino]phenyl]pentanoic acid], the melting point lay in the range of 117 to 119 °C.

Regarding `COc1cccc([C@H]2O[C@H](CC(=O)Nc3ccc(OCC(=O)O)cc3F)C(=O)N(CC(C)(C)CO)c3ccc(Cl)cc32)c1OC` [Example 136], the melting point was 192 to 193 °C (dec.).

As to `COc1ccc(C(C)(C)C(=O)O)cc1NC(=O)C[C@H]1O[C@H](c2cccc(OC)c2OC)c2cc(Cl)ccc2N(CC(C)(C)CO)C1=O` [Example 137, 2-[3-[[2-[(3R,5S)-7-Chloro-5-(2,3-dimethoxyphenyl)-1-(3-hydroxy-2,2-dimethylpropyl)-2-oxo-1,2,3,5-tetrahydro-4,1-benzoxazepin-3-yl]acetyl]amino]-4-methoxyphenyl]-2,2-dimethylacetic acid], the melting point was 225 to 226 °C (dec.).

With `COc1ccc(C(C)(C)CCC(=O)O)cc1NC(=O)C[C@H]1O[C@H](c2cccc(OC)c2OC)c2cc(Cl)ccc2N(CC(C)(C)CO)C1=O` [Example 138, 4-[3-[[2-[(3R,5S)-7-Chloro-5-(2,3-dimethoxyphenyl)-1-(3-hydroxy-2,2-dimethylpropyl)-2-oxo-1,2,3,5-tetrahydro-4,1-benzoxazepin-3-yl]acetyl]amino]-4-methoxyphenyl]-4,4-dimethylbutanoic acid], the melting point lay in the range of 173 to 174 °C.

The molecule `COc1ccc(CCCCC(=O)O)cc1NC(=O)C[C@H]1O[C@H](c2cccc(OC)c2OC)c2cc(Cl)ccc2N(CC(C)(C)CO)C1=O` [Example 139, 5-[3-[[2-[(3R,5S)-7-Chloro-5-(2,3-dimethoxyphenyl)-1-(3-hydroxy-2,2-dimethylpropyl)-2-oxo-1,2,3,5-tetrahydro-4,1-benzoxazepin-3-yl]acetyl]amino]-4-methoxyphenyl]pentanoic acid] came in with a melting point of 136 to 138 °C.

In the case of `COc1cccc([C@H]2O[C@H](CC(=O)Nc3cccc(C(=O)O)n3)C(=O)N(CC(C)(C)CO)c3ccc(Cl)cc32)c1OC` [Example 140, 6-[[[(3R,5S)-5-(2,3-Dimethoxyphenyl)-7-chloro-1-(3-hydroxy-2,2-dimethylpropyl)-2-oxo-1,2,3,5-tetrahydro-4,1-benzoxazepin-3-yl]acetyl]amino]-2-pyridinecarboxylic acid], the melting point is 265 to 270 °C (dec.).

In turn, `COc1cccc([C@H]2O[C@H](CC(=O)Nc3ncc(C(=O)O)s3)C(=O)N(CC(C)(C)CO)c3ccc(Cl)cc32)c1OC` [Example 141, 2-[[[(3R,5S)-7-Chloro-5-(2,3-dimethoxyphenyl)-1-(3-hydroxy-2,2-dimethylpropyl)-2-oxo-1,2,3,5-tetrahydro-4,1-benzoxazepin-3-yl]acetyl]amino]-1,3-thiazole-5-carboxylic acid] gave a melting point of 241 to 242.2 °C.

The molecule `COc1cccc([C@H]2O[C@H](CC(=O)Nc3nc(C(=O)O)cs3)C(=O)N(CC(C)(C)CO)c3ccc(Cl)cc32)c1OC` [Example 142, 2-[[[(3R,5S)-7-Chloro-5-(2,3-dimethoxyphenyl)-1-(3-hydroxy-2,2-dimethylpropyl)-2-oxo-1,2,3,5-tetrahydro-4,1-benzoxazepin-3-yl]acetyl]amino]-1,3-thiazole-4-carboxylic acid] came in with a melting point of 277.3 to 277.9 °C.

In turn, `COc1cccc([C@H]2O[C@H](CC(=O)Nc3ncc(CC(=O)O)s3)C(=O)N(CC(C)(C)CO)c3ccc(Cl)cc32)c1OC` [Example 143, [2-[[[(3R,5S)-7-Chloro-5-(2,3-dimethoxyphenyl)-1-(3-hydroxy-2,2-dimethylpropyl)-2-oxo-1,2,3,5-tetrahydro-4,1-benzoxazepin-3-yl]acetyl]amino]-1,3-thiazol-5-yl]acetic acid] registered a melting point of 239 to 241 °C.

In the case of `COc1cccc([C@H]2O[C@H](CC(=O)Nc3ncc(CCC(=O)O)s3)C(=O)N(CC(C)(C)CO)c3ccc(Cl)cc32)c1OC` [Example 144, 3-[2-[[[(3R,5S)-7-Chloro-5-(2,3-dimethoxyphenyl)-1-(3-hydroxy-2,2-dimethylpropyl)-2-oxo-1,2,3,5-tetrahydro-4,1-benzoxazepin-3-yl]acetyl]amino]-1,3-thiazol-5-yl]propionic Acid], the melting point is 203 to 205 °C.

For `COc1cccc([C@H]2O[C@H](CC(=O)Nc3nc(C)c(C(=O)O)s3)C(=O)N(CC(C)(C)CO)c3ccc(Cl)cc32)c1OC` [Example 145, 2-[[[(3R,5S)-7-Chloro-5-(2,3-dimethoxyphenyl)-1-(3-hydroxy-2,2-dimethylpropyl)-2-oxo-1,2,3,5-tetrahydro-4,1-benzoxazepin-3-yl]acetyl]amino]-4-methyl-1,3-thiazole-5-carboxylic acid], the melting point was 251 to 252 °C.

Turning to `COc1cccc([C@H]2O[C@H](CC(=O)Nc3ccc4[nH]c(SCC(=O)O)nc4c3)C(=O)N(CC(C)(C)CO)c3ccc(Cl)cc32)c1OC` [Example 148, 2-[[5-[[[(3R,5S)-7-Chloro-5-(2,3-dimethoxyphenyl)-1-(3-hydroxy-2,2-dimethylpropyl)-2-oxo-1,2,3,5-tetrahydro-4,1-benzoxazepin-3-yl]acetyl]amino]-1H-benzimidazol-2-yl]sulfanyl]acetic acid], the melting point fell in the range of 187.9 to 188.9 °C.

As for `COc1cccc([C@H]2O[C@H](CC(=O)Nc3cc(OC)c4oc(C(=O)O)cc4c3)C(=O)N(CC(C)(C)CO)c3ccc(Cl)cc32)c1OC` [Example 149, 5-[[[(3R,5S)-5-(2,3-dimethoxyphenyl)-7-chloro-1-(3-hydroxy-2,2-dimethylpropyl)-2-oxo-1,2,3,5-tetrahydro-4,1-benzoxazepin-3-yl]acetyl]amino]-7-methoxy-1-benzofran-2-carboxylic acid], the melting point was in the range of 175.4 to 175.5 °C.

The molecule `CCOc1cc(NC(=O)C[C@H]2O[C@H](c3cccc(OC)c3OC)c3cc(Cl)ccc3N(CC(C)(C)CO)C2=O)cc2cc(C(=O)O)oc12` [Example 150, 5-[[[(3R,5S)-7-chloro-5-(2,3-dimethoxyphenyl)-1-(3-hydroxy-2,2-dimethylpropyl)-2-oxo-1,2,3,5-tetrahydro-4,1-benzoxazepin-3-yl]acetyl]amino]-7-ethoxy-1-benzofuran-2-carboxylic acid] displayed a melting point of 181 to 181.5 °C.

In turn, `COc1cccc([C@H]2O[C@H](CC(=O)Nc3cc(OC(C)C)c4oc(C(=O)O)cc4c3)C(=O)N(CC(C)(C)CO)c3ccc(Cl)cc32)c1OC` [Example 152, 5-[[[(3R,5S)-7-Chloro-5-(2,3-dimethoxyphenyl)-1-(3-hydroxy-2,2-dimethylpropyl)-2-oxo-1,2,3,5-tetrahydro-4,1-benzoxazepin-3-yl]acetyl]amino]-7-[(1-methylethyl)oxy]-1-benzofuran-2-carboxylic acid] registered a melting point of 188.6 to 189.7 °C.

Molecule `COc1cccc([C@H]2O[C@H](CC(=O)Nc3ccc4oc(C(=O)O)c(OC)c4c3)C(=O)N(CC(C)(C)CO)c3ccc(Cl)cc32)c1OC` [Example 153, 5-[[[(3R,5S)-7-chloro-5-(2,3-dimethoxyphenyl)-7-chloro-1-(3-hydroxy-2,2-dimethylpropyl)-2-oxo-1,2,3,5-tetrahydro-4,1-benzoxazepin-3-yl]acetyl]amino]-3-methoxy-1-benzofuran-2-carboxylic acid] yielded a melting point of 175.4 to 176.3 °C.

`COc1cccc([C@H]2O[C@H](CC(=O)Nc3ccc4oc(C(=O)O)c(OCC(=O)O)c4c3)C(=O)N(CC(C)(C)CO)c3ccc(Cl)cc32)c1OC` [Example 155, 5-[[[(3R,5S)-7-chloro-5-(2,3-dimethoxyphenyl)-1-(3-hydroxy-2,2-dimethylpropyl)-2-oxo-1,2,3,5-tetrahydro-4,1-benzoxazepin-3-yl]acetyl]amino]-3-[(carboxymethyl)oxy]-1-benzofuran-2-carboxylic acid] yielded a melting point of 193 to 195.5 °C.

Regarding `COc1cccc([C@H]2O[C@H](CC(=O)Nc3ccc4oc(C(=O)O)c(OC(C)C)c4c3)C(=O)N(CC(C)(C)CO)c3ccc(Cl)cc32)c1OC` [Example 156, 5-[[[(3R,5S)-7-chloro-5-(2,3-dimethoxyphenyl)-1-(3-hydroxy-2,2-dimethylpropyl)-2-oxo-1,2,3,5-tetrahydro-4,1-benzoxazepin-3-yl]acetyl]amino]-3-[(1-methylethyl)oxy]-1-benzofuran-2-carboxylic acid], the melting point fell in the range of 174.2 to 174.9 °C.

In the case of `COc1cccc([C@H]2O[C@H](CC(=O)Nc3ccc4[nH]c(C(=O)O)cc4c3)C(=O)N(CC(C)(C)CO)c3ccc(Cl)cc32)c1OC` [Example 157], the melting point lay within 200.5 to 200.6 °C.

As to `COc1cccc([C@H]2O[C@H](CC(=O)Nc3ccc4oc(CCC(=O)O)cc4c3)C(=O)N(CC(C)(C)CO)c3ccc(Cl)cc32)c1OC` [Example 159, 3-[5-[[[(3R,5S)-7-Chloro-5-(2,3-dimethoxyphenyl)-1-(3-hydroxy-2,2-dimethylpropyl)-2-oxo-1,2,3,5-tetrahydro-4,1-benzoxazepin-3-yl]acetyl]amino]-1-benzofuran-2-yl]propanoic acid], the melting point lay in the range of 207 to 209 °C.

The record behind these values is patent US20030078251A1, “Benzoxazepinones and their use as squalene synthase inhibitors” (priority 2000, published 2003).
